In patent US11780901B2, “Analogues of parathyroid hormone (1-34) that function as agonists of the parathyroid hormone receptor-1 and display modified activity profiles” (Wisconsin Alumni Research Foundation, priority 2013, dated 2023):
Where two headings read alike, the source gives them in different places. Starred links: 1 amine or outer side, 2 acyl side, 3 side chain; linkers in the order of their positions; H or OH if unused. Non-standard residues stand in square brackets, D forms with d. Residues, ends and D or L forms follow the SMILES beside them. X7 = NC(=O)CC[C@@H](CN[*:1])C(=O)[*:2]

Legend:
Assay type in all cases: cell-based
PTHR2 = PTHR2 (Homo sapiens, UniProt P49190); experiment: PTHR2 activation, cAMP production (GloSensor) in HEK293 cells; set-up: expressed in transfected cells; conditions: for EC50: HEK-293 cells, GloSensor cAMP, read-out: EC50 (nM) of PTHR2 Activation
Description: The assays employ HEK-293 cells that have been engineered to express the appropriate receptor. GloSensor-based detection of cAMP provides a read-out of receptor activation. […] (Carter, P. H. et al. Actions of the Small Molecule Ligands SW106 and AH-3960 on the Type-1 Parathyroid Hormone Receptor. Molecular Endocrinology 29, 307-321 (2015).)
FIGS. 10A and 10B depict dose-response curves of PTHR1 activation (FIG. 10A) and PTHR2 activation (FIG. 10B) in HEK293 cells stably expressing PTHR1 or PTHR2. For PTHR1 activation and all the binding data, data represent mean±s.e.m from three independent measurements; For PTHR2 activation, data represent mean±s.e.m from four independent measurements. Curves were fit to the data using a four-parameter sigmoidal dose-response equation.

PTHR1 and PTHR2 = experiment: Tolerance pattern of β residues for PTHR1 and PTHR2 activation; set-up: key: “*” denotes potent PTHR1-selective agonism; “#” denotes potent PTHR2-selective agonism; “*#” denotes potent agonism of both PTHR1 and PTHR2; conditions: PTHR1 vs PTHR2 agonism
Description: Enhanced selectivity via double α→β replacement.

PTHR1 = target: T1, PTHR1 (Homo sapiens, UniProt Q03431); experiment: PTHR1 activation, cAMP production (GloSensor) in HEK293 cells; set-up: expressed in transfected cells; conditions: for PTHR1 Activation: Derivative EC50/PTH EC50: normalized to EC50 of PTH(1-34)-NH2 ([…]), cAMP production
T1 sequence (Q03431 27-593): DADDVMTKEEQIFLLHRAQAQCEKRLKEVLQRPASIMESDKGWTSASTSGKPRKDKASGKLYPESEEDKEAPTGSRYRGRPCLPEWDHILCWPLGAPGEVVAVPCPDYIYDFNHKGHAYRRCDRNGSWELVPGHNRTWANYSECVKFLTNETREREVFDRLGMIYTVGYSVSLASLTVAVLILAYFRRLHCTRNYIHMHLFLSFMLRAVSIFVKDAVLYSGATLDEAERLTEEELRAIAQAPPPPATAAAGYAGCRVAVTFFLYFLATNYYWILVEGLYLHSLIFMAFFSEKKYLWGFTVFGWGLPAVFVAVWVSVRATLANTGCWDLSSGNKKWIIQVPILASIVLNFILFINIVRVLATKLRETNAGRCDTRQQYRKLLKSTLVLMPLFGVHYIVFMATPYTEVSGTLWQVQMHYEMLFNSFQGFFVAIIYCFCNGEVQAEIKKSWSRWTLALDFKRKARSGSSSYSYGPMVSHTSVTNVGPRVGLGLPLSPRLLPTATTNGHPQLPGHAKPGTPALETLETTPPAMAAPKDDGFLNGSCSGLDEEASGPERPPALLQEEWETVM
Description: The assays employ HEK-293 cells that have been engineered to express the appropriate receptor. GloSensor-based detection of cAMP provides a read-out of receptor activation.
For PTHR1 activation and all the binding data, data represent mean±s.e.m from three independent measurements; For PTHR2 activation, data represent mean±s.e.m from four independent measurements. Curves were fit to the data using a four-parameter sigmoidal dose-response equation.
For cAMP dose-response assays, monolayers of confluent HEK 293 cells were pre-incubated with buffer containing d-luciferin (0.5 mM) in 96 well plates at room temperature until a stable baseline level of luminescence was established (30 min). Varying concentrations of agonist were then added, and the time course of luminescence response was recorded using a Perkin Elmer plate reader following α/β-peptide addition.

[1] = HEK-293 cells, GloSensor cAMP, read-out: EC50 (nM) of PTHR1 Activation
[2] = Table 8, hPTHR1, read-out: PTHR1 EC50

Chain of PTHR2 (P49190 25-550): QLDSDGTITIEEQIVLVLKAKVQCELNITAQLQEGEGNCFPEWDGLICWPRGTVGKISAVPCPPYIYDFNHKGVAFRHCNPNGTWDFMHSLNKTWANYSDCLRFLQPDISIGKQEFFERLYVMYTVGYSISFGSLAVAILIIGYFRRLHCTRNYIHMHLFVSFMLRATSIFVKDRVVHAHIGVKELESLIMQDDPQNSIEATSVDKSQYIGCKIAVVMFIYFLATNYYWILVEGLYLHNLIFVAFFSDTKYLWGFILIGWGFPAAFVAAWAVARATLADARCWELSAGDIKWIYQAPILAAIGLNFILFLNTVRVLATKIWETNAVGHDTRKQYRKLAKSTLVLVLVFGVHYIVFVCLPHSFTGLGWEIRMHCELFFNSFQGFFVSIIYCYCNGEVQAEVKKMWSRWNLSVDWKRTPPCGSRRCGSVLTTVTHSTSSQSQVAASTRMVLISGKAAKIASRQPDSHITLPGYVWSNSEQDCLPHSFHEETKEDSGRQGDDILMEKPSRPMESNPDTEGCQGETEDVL

Row | EC50 (PTHR1; [1]) | PTHR1 Activation: Derivative EC50/PTH EC50 (PTHR1) | EC50 (PTHR1; [2]) | SMILES | EC50 (PTHR2) | PTHR2 Activation: Derivative EC50/PTH EC50 (PTHR2; normalized to EC50 of PTH(1-34)-NH2 ([…] printed), cAMP production) | Tolerance Pattern of β AA (PTHR1 and PTHR2)
1 | 0.36 ± 0.11 nM | 0.95 |  | CC[C@H](C)[C@H](NC(=O)[C@H](CCC(=O)O)NC(=O)[C@H](CO)NC(=O)[C@@H](NC(=O)[C@@H](N)CO)C(C)C)C(=O)N[C@@H](CCC(N)=O)C(=O)NC[C@@H](CC(C)C)C(=O)N[C@@H](CCSC)C(=O)N[C@@H](Cc1c[nH]cn1)C(=O)N[C@@H](CC(N)=O)C(=O)N[C@@H](CC(C)C)C(=O)NCC(=O)N[C@@H](CCCCN)C(=O)N[C@@H](Cc1c[nH]cn1)C(=O)N[C@@H](CC(C)C)C(=O)N[C@@H](CC(N)=O)C(=O)N[C@@H](CO)C(=O)N[C@@H](CCSC)C(=O)N[C@@H](CCC(=O)O)C(=O)N[C@@H](CCCNC(=N)N)C(=O)N[C@H](C(=O)N[C@@H](CCC(=O)O)C(=O)N[C@@H](Cc1c[nH]c2ccccc12)C(=O)N[C@@H](CC(C)C)C(=O)N[C@@H](CCCNC(=N)N)C(=O)N[C@@H](CCCCN)C(=O)N[C@@H](CCCCN)C(=O)N[C@@H](CC(C)C)C(=O)N[C@@H](CCC(N)=O)C(=O)N[C@@H](CC(=O)O)C(=O)N[C@H](C(=O)N[C@@H](Cc1c[nH]cn1)C(=O)N[C@@H](CC(N)=O)C(=O)N[C@@H](Cc1ccccc1)C(N)=O)C(C)C)C(C)C [SEQ. ID. NO: 28] | 41.4 ± 5.18 nM | 47.64 | *
2 | 0.42 ± 0.07 nM | 1.11 | 1.96 ± 0.45 nM | CC[C@H](C)[C@H](NC(=O)[C@H](CCC(=O)O)NC(=O)[C@H](CO)NC(=O)[C@@H](NC(=O)[C@@H](N)CO)C(C)C)C(=O)NC[C@H](CCC(N)=O)C(=O)N[C@@H](CC(C)C)C(=O)N[C@@H](CCSC)C(=O)N[C@@H](Cc1c[nH]cn1)C(=O)N[C@@H](CC(N)=O)C(=O)N[C@@H](CC(C)C)C(=O)NCC(=O)N[C@@H](CCCCN)C(=O)N[C@@H](Cc1c[nH]cn1)C(=O)N[C@@H](CC(C)C)C(=O)N[C@@H](CC(N)=O)C(=O)N[C@@H](CO)C(=O)N[C@@H](CCSC)C(=O)N[C@@H](CCC(=O)O)C(=O)N[C@@H](CCCNC(=N)N)C(=O)N[C@H](C(=O)N[C@@H](CCC(=O)O)C(=O)N[C@@H](Cc1c[nH]c2ccccc12)C(=O)N[C@@H](CC(C)C)C(=O)N[C@@H](CCCNC(=N)N)C(=O)N[C@@H](CCCCN)C(=O)N[C@@H](CCCCN)C(=O)N[C@@H](CC(C)C)C(=O)N[C@@H](CCC(N)=O)C(=O)N[C@@H](CC(=O)O)C(=O)N[C@H](C(=O)N[C@@H](Cc1c[nH]cn1)C(=O)N[C@@H](CC(N)=O)C(=O)N[C@@H](Cc1ccccc1)C(N)=O)C(C)C)C(C)C [SEQ. ID. NO: 35] (H-SVSEI[X7]LMHNLGKHLNSMERVEWLRKKLQDVHNF-NH2; N-terminus assumed) |  |  | *#
3 | 0.47 ± 0.14 nM | 1.24 | 0.24 ± 0.01 nM | CC[C@H](C)[C@H](NC(=O)[C@H](CCC(=O)O)NC(=O)[C@H](CO)NC(=O)[C@@H](NC(=O)[C@@H](N)CO)C(C)C)C(=O)N[C@@H](CCC(N)=O)C(=O)NC[C@H](CC(C)C)C(=O)N[C@@H](CCSC)C(=O)N[C@@H](Cc1c[nH]cn1)C(=O)N[C@@H](CC(N)=O)C(=O)N[C@@H](CC(C)C)C(=O)NCC(=O)N[C@@H](CCCCN)C(=O)N[C@@H](Cc1c[nH]cn1)C(=O)N[C@@H](CC(C)C)C(=O)N[C@@H](CC(N)=O)C(=O)N[C@@H](CO)C(=O)N[C@@H](CCSC)C(=O)N[C@@H](CCC(=O)O)C(=O)N[C@@H](CCCNC(=N)N)C(=O)N[C@H](C(=O)N[C@@H](CCC(=O)O)C(=O)N[C@@H](Cc1c[nH]c2ccccc12)C(=O)N[C@@H](CC(C)C)C(=O)N[C@@H](CCCNC(=N)N)C(=O)N[C@@H](CCCCN)C(=O)N[C@@H](CCCCN)C(=O)N[C@@H](CC(C)C)C(=O)N[C@@H](CCC(N)=O)C(=O)N[C@@H](CC(=O)O)C(=O)N[C@H](C(=O)N[C@@H](Cc1c[nH]cn1)C(=O)N[C@@H](CC(N)=O)C(=O)N[C@@H](Cc1ccccc1)C(N)=O)C(C)C)C(C)C [SEQ. ID. NO: 36] |  |  | *#
4 | 0.27 ± 0.06 nM |  |  | CC[C@H](C)[C@H](NC(=O)[C@H](CCC(=O)O)NC(=O)[C@H](CO)NC(=O)[C@@H](NC(=O)C[C@@H](N)CO)C(C)C)C(=O)N[C@@H](CCC(N)=O)C(=O)N[C@@H](CC(C)C)C(=O)N[C@@H](CCSC)C(=O)N[C@@H](Cc1c[nH]cn1)C(=O)N[C@@H](CC(N)=O)C(=O)N[C@@H](CC(C)C)C(=O)NCC(=O)N[C@@H](CCCCN)C(=O)N[C@@H](Cc1c[nH]cn1)C(=O)N[C@@H](CC(C)C)C(=O)N[C@@H](CC(N)=O)C(=O)N[C@@H](CO)C(=O)N[C@@H](CCSC)C(=O)N[C@@H](CCC(=O)O)C(=O)N[C@@H](CCCNC(=N)N)C(=O)N[C@H](C(=O)N[C@@H](CCC(=O)O)C(=O)N[C@@H](Cc1c[nH]c2ccccc12)C(=O)N[C@@H](CC(C)C)C(=O)N[C@@H](CCCNC(=N)N)C(=O)N[C@@H](CCCCN)C(=O)N[C@@H](CCCCN)C(=O)N[C@@H](CC(C)C)C(=O)N[C@@H](CCC(N)=O)C(=O)N[C@@H](CC(=O)O)C(=O)N[C@H](C(=O)N[C@@H](Cc1c[nH]cn1)C(=O)N[C@@H](CC(N)=O)C(=O)N[C@@H](Cc1ccccc1)C(N)=O)C(C)C)C(C)C [SEQ. ID. NO: 38] |  |  | *#
5 | 8.45 ± 1.35 nM | 22.24 |  | CC[C@H](C)[C@H](NC(=O)[C@H](CCC(=O)O)NC(=O)[C@H](CO)NC(=O)[C@@H](NC(=O)[C@@H](N)CO)C(C)C)C(=O)N[C@@H](CCC(N)=O)CC(=O)N[C@@H](CC(C)C)C(=O)N[C@@H](CCSC)C(=O)N[C@@H](Cc1c[nH]cn1)C(=O)N[C@@H](CC(N)=O)C(=O)N[C@@H](CC(C)C)C(=O)NCC(=O)N[C@@H](CCCCN)C(=O)N[C@@H](Cc1c[nH]cn1)C(=O)N[C@@H](CC(C)C)C(=O)N[C@@H](CC(N)=O)C(=O)N[C@@H](CO)C(=O)N[C@@H](CCSC)C(=O)N[C@@H](CCC(=O)O)C(=O)N[C@@H](CCCNC(=N)N)C(=O)N[C@H](C(=O)N[C@@H](CCC(=O)O)C(=O)N[C@@H](Cc1c[nH]c2ccccc12)C(=O)N[C@@H](CC(C)C)C(=O)N[C@@H](CCCNC(=N)N)C(=O)N[C@@H](CCCCN)C(=O)N[C@@H](CCCCN)C(=O)N[C@@H](CC(C)C)C(=O)N[C@@H](CCC(N)=O)C(=O)N[C@@H](CC(=O)O)C(=O)N[C@H](C(=O)N[C@@H](Cc1c[nH]cn1)C(=O)N[C@@H](CC(N)=O)C(=O)N[C@@H](Cc1ccccc1)C(N)=O)C(C)C)C(C)C [SEQ. ID. NO: 43] |  |  | #
6 |  |  |  | CC[C@H](C)[C@H](NC(=O)[C@H](CCC(=O)O)NC(=O)[C@H](CO)NC(=O)[C@@H](NC(=O)[C@@H](N)CO)C(C)C)C(=O)N[C@@H](CCC(N)=O)C(=O)N[C@H](CC(=O)N[C@@H](CCSC)C(=O)N[C@@H](Cc1c[nH]cn1)C(=O)N[C@@H](CC(N)=O)C(=O)N[C@@H](CC(C)C)C(=O)NCC(=O)N[C@@H](CCCCN)C(=O)N[C@@H](Cc1c[nH]cn1)C(=O)N[C@@H](CC(C)C)C(=O)N[C@@H](CC(N)=O)C(=O)N[C@@H](CO)C(=O)N[C@@H](CCSC)C(=O)N[C@@H](CCC(=O)O)C(=O)N[C@@H](CCCNC(=N)N)C(=O)N[C@H](C(=O)N[C@@H](CCC(=O)O)C(=O)N[C@@H](Cc1c[nH]c2ccccc12)C(=O)N[C@@H](CC(C)C)C(=O)N[C@@H](CCCNC(=N)N)C(=O)N[C@@H](CCCCN)C(=O)N[C@@H](CCCCN)C(=O)N[C@@H](CC(C)C)C(=O)N[C@@H](CCC(N)=O)C(=O)N[C@@H](CC(=O)O)C(=O)N[C@H](C(=O)N[C@@H](Cc1c[nH]cn1)C(=O)N[C@@H](CC(N)=O)C(=O)N[C@@H](Cc1ccccc1)C(N)=O)C(C)C)C(C)C)CC(C)C [SEQ. ID. NO: 44] | 35 ± 2.84 nM |  | *
